Assay [1] relates to tumour lines HeLa, HL-60, Jukat, U937 and PC3. Kind of assay: Tetrazolium-based cell viability assay, tumour lines. As to conditions: range over HeLa, HL-60, Jurkat, 48 h, MTT (adherent) or MTS/PMS (suspension), estimated, three independent experiments. On the set-up: species or system human. How it is done:
Human epithelial cervical cancer (HeLa), leukemic monocyte lymphoma (U937), prostate cancer (PC3), promyelocytic leukemia (HL-60), leukemic T cell lymphoblast (Jurkat) cells were cultured in RPMI-1640 medium supplemented with 5–10% (v/v) fetal calf serum (FCS), 100 U/mL penicillin and 100 μg/mL streptomycin (Invitrogen, Carlsbad, CA). Human umbilical vein […] cell (HUVEC) cells were cultured in M199 medium (Invitrogen) supplemented with 20% (v/v) FCS, 40 μg/mL gentamicin, 4 μg/mL endothelial cell growth factor, 4 μg/mL L-glutamine and 135 μg/mL heparin, in 0.1% (w/v) gelatin-coated Corning CELLBIND flask (Corning Life Sciences, Acton, MA). […]
Different concentrations of HBD-3 were added to cells seeded in 96-well plates in appropriate complete medium. […] After 48 h, cell viability was determined using 3-(4,5-dimethylthiazol-2-yl)-2,5-diphenyltetrazolium bromide (MTT) (Sigma-Aldrich, MO) for adherent cells (HeLa, PC3, HUVEC, AHDF, CASMC) or 3-(4,5-dimethylthiazol-2-yl)-5-(3-carboxymethoxyphenyl)-2-(4-sulfophenyl)-2H-tetrazolium (MTS) (Promega, Madison, WI) coupled with phenzine methosulfate (PMS) (Promega) for suspension cells (U937, HL-60, Jurkat) prior to absorbance measurement at 570 nm and […], respectively. Absorbance readings of untreated control wells was designated as 100% cell viability.

Another assay has as its system HUVEC cells. Kind of assay: Flow cytometry-based PI uptake assay, HUVEC. It counts as cell-based, human. The settings on record: 25 μM HBD-3, 37°C, 30 min, serum-free medium with 0.1% BSA. How it is done:
(§1) Cells suspended at 1×10^6 cells/mL in serum-free medium containing 0.1% (w/v) bovine serum albumin (BSA) (Sigma-Aldrich) were treated with HBD-3 at 37°C for 30 min. Nucleic acid stain propidium iodide (PI) was then added to a final concentration of 1 μg/mL and cells subjected to flow cytometry analysis using BD FACSCanto II Flow Cytometer and BD FACSDiva Software v6.1.1 (BD Biosciences, San Jose, CA). For each flow cytometry reading, 10,000 cells, gated appropriately based on forward scattering and side scattering, were recorded. The resultant data were processed using FlowJo software (Tree Star, San Carlos, CA) to determine PI-positivity, which reflects the level of membrane permeabilisation. For lipid inhibition assays, 15 μM HBD-3 was pre-incubated with 50 μM synthetic lipids, including L-α-phosphatidic acid (PA), L-α-phosphatidylcholine (PC), L-α-phosphatidylethanolamine (PE), L-α-phosphatidylserine (PS), L-α-phosphatidylinositol-4-phosphate (PI(4)P), L-α-phosphatidylinositol-3,5-bisphosphate (PI(3,5)P2), L-α-phosphatidylinositol-4,5-bisphosphate (PI(4,5)P2) and L-α-phosphatidylinositol-3,4,5-trisphosphate (PI(3,4,5)P)3. All lipids were sourced from Avanti Polar Lipids, Alabaster, AL. […]

In another assay the test system is HeLa cells. Kind of assay: ATP bioluminescence release assay, HeLa. As to conditions: HBD-3 titrations, bioluminescence for 30 min, PBS with 0.1% BSA, concentration-dependent. It counts as cell-based, human. How it is done:
(§2) ATP release assay was conducted using an ATP bioluminescence assay kit (Roche Diagnostics, Mannheim, Germany). U937 and HeLa cells were suspended at 1×10^6 cells/mL in PBS containing 0.1% (w/v) BSA, and mixed with luciferase/luciferin reagent at a ratio of 4:5. The mixture was added to HBD-3 samples and the level of ATP release measured immediately as bioluminescence emission signal intensity for 30 min with 30 s intervals.

The subject of another assay is tumour lines. Kind of assay: Flow cytometry-based PI uptake assay, tumour lines. As to conditions: 50 μM HBD-3 (highest dose tested), 37°C, 30 min. It counts as cell-based, human. How it is done:
as §1

The test system of assay [2] is U937 cells. Kind of assay: Flow cytometry-based PI uptake assay, U937. It counts as cell-based, human. The settings on record: 25 μM HBD-3, 37°C, 30 min, serum-free medium with 0.1% BSA. How it is done:
as §1

The nature of assay [3]: Protein-lipid overlay assay, PIP strip. It counts as binding. The settings on record: 1 μg/mL protein, immunodetection, densitometry. How it is done: Protein-lipid overlay assays using Membrane strip™ or PIP strip™ (Echelon Biosciences, Salt Lake City, UT) were performed using 1 μg/mL proteins as described previously. Lipid binding was immunodetected using a combination of rabbit anti-HBD-3 IgG (50 μg/mL) and horseradish peroxidase-conjugated donkey-anti-rabbit Ig (10 μg/mL) antibodies. Chemiluminescence signal intensity was quantitated by densitometry analysis using ImageJ (National Institutes of Health, Bethesda, MD; http://imagej.nih.gov/ij/).

For assay [4], the system named is U937 cells. The experiment in a line: ATP bioluminescence release assay, U937. It counts as cell-based, human. The settings on record: HBD-3 titrations, bioluminescence for 30 min, PBS with 0.1% BSA, concentration-dependent. How it is done: as §2
Assay [5] is described as follows: ATP-encapsulated liposome leakage assay, PC:PI(4,5)P2. As to conditions: PC liposomes containing 5% PI(4,5)P2, concentration-dependent, compared with PC only. How it is done: Liposomes were generated as described previously using natural PI(4,5)P2 (porcine brain, in chloroform:methanol:water at 20:9:1 molar ratio) and PC (chicken egg, in chloroform) purchased from Avanti Polar Lipids. PC only or PC:PI(4,5)P2 (95:5 molar ratio) solutions were dried under a stream of nitrogen gas followed by overnight vacuum-drying. The lipid films were rehydrated to a final concentration of 5 mg/mL in 20 mM HEPES (pH 7.2) containing 5 mg/mL adenosine-5-triphosphate disodium salt (ATP; Sigma-Aldrich) at 37°C for 1 h. After three subsequent cycles of freezing (liquid nitrogen) and thawing (25°C), multilamellar liposomes were extruded 15–20 times through a mini-extruder (Avanti Polar Lipids). Free ATP was removed by three centrifugal washes with 20 mM HEPES at 16,500 g prior to the ATP release assay. Liposomes treated with 1% Triton X-100 were included as positive control and assigned as total lysis, whereas HEPES only control served as background reading. The level of ATP release at a particular time point was determined by quotient of the corrected reading (after subtracting background) of the sample at that time point and corrected reading of total lysis, as per the following equation: % Lysist=Samplet−HEPESt/Triton X−HEPES×100

Where no end group is shown, it is not given here.

With “human β-defensin 3 (GIINTLQKYYCRVRGGRCAVLSCLPKEEQIGKCSTRGRKCCRRKK; not fully specified; cysteine pairing not given here; UniProt P81534 23-67, looked up) [HBD-3, human β-defensin 3, cationic antimicrobial peptide, recombinantly expressed in P. pastoris]”, the 50% inhibitory concentration (IC50) in assay [1] is 8 to 20 µM. The values for the PI-positive cells in the assay with HUVEC cells and in the assay with U937 cells [2] were 14.5% and “approximately 85%”, respectively. For the same substance, the “cytoplasmic ATP release” value in the assay on HeLa cells and in the assay on U937 cells [4] was “rapidly released” in each case. Moreover, the “cells permeabilised (PI-positive)” value in the assay with tumour lines was “at least 80%”. In addition, the “binding to phosphoinositides/lipids on PIP strip” value in assay [3] was “most strongly, PA and all phosphoinositides”. In assay [5], the “ATP release from ATP-encapsulated liposomes” value is given as “much higher level of ATP was released”.

The values are drawn from publication PMC4811302, “Human β-defensin 3 contains an oncolytic motif that binds PI(4,5)P2 to mediate tumour cell permeabilisation” (Oncotarget, 2015).
